Laboratory results reported in patent US20100143428A1, “A STABLE GLUTARALDEHYDE COMPLEX” (priority 2006, published 2010).

Tested on: bacteria
Test: Residual efficacy on bacterially contaminated surfaces, duration of effect
Type: cell-based
Details: "as is"
Procedure: Table 1 tabulates results of a residual efficacy test done on the product of the invention (sample number RT14) by the South African Bureau of Standards (SABS) using the European surface test method (1993), to determine the residual efficacy of the sample on bacterially contaminated surfaces.
The surfaces of stainless steel discs (2 cm^2) were seeded with a 0.1 ml bacterial suspension containing 10^7 bacterial cells/ml and thereafter dried at 37° C. for one hour. The 0.1 ml RT14 sample was dropped onto the dried disc, ensuring that the disc was totally covered. After 24 hours, 48 hours, 7 days, 14 days and 30 days respectively, the surfaces were again seeded with a bacterial suspension. After a minute contact time, the stainless steel discs were placed in conical flasks containing 10m1 of a neutralization medium to neutralize the RT14 and the flasks were shaken to dislodge the cells from the discs. Tenfold dilutions of the flask contents were placed onto sterile petri dishes. Nutrient agar was poured onto the petri dishes, mixed with contents, and incubated at 37° C. for 2 days. Colony-forming bacterial cells were counted. Untreated stainless steel discs were used as controls.

## O=CCCCC=O [glutaraldehyde]
  duration of effectiveness on bacteria: up to 10 hours
